From ChEMBL document CHEMBL2380193, “New trifluoromethyl quinolone derivatives: synthesis and investigation of antimicrobial properties” (2013)
Converted amounts (≈) assume the structure as drawn.

Experiments:
[1] = system: Aspergillus flavus; assay: Antifungal activity against Aspergillus flavus MTCC 277 after 30 hrs by serial dilution method; type: functional; details: MTCC 277, 30 h
[2] = system: Aspergillus niger; assay: Antifungal activity against Aspergillus niger MTCC 282 after 30 hrs by serial dilution method; type: functional; details: MTCC 282, 30 h
[3] = system: Candida albicans; assay: Antifungal activity against Candida albicans MTCC 227 after 30 hrs by serial dilution method; type: functional; details: MTCC 227, 30 h
[4] = system: Salmonella typhi; assay: Antibacterial activity against Salmonella typhi MTCC 733 assessed as zone of inhibition at 100 ug/ml after 14 hrs by cup plate method; type: functional, Salmonella enterica subsp. enterica serovar Typhi; details: Salmonella enterica, MTCC 733, 14 h; read-out: IZ
[5] = system: Aspergillus fumigatus; assay: Antifungal activity against Aspergillus fumigatus MTCC 343 after 30 hrs by serial dilution method; type: functional; details: MTCC 343, 30 h
[6] = system: Bacillus subtilis; assay: Antibacterial activity against Bacillus subtilis MTCC 441 after 14 hrs by serial dilution method; type: functional; details: MTCC 441, 14 h
[7] = system: Aspergillus fumigatus; assay: Antifungal activity against Aspergillus fumigatus MTCC 343 assessed as zone of inhibition at 100 ug/ml after 30 hrs by cup plate method; type: functional; details: MTCC 343, 30 h, read-out: IZ
[8] = system: Candida albicans; assay: Antifungal activity against Candida albicans MTCC 227 assessed as zone of inhibition at 100 ug/ml after 30 hrs by cup plate method; type: functional; details: MTCC 227, 30 h, read-out: IZ
[9] = system: Klebsiella pneumoniae; assay: Antibacterial activity against Klebsiella pneumoniae MTCC 432 after 14 hrs by serial dilution method; type: functional; details: MTCC 432, 14 h
[10] = system: Klebsiella pneumoniae; assay: Antibacterial activity against Klebsiella pneumoniae MTCC 432 assessed as zone of inhibition at 100 ug/ml after 14 hrs by cup plate method; type: functional; details: MTCC 432, 14 h, read-out: IZ
[11] = system: Staphylococcus aureus; assay: Antibacterial activity against Staphylococcus aureus MTCC 096 after 14 hrs by serial dilution method; type: functional; details: MTCC 096, 14 h
[12] = system: Salmonella typhi; assay: Antibacterial activity against Salmonella typhi MTCC 733 after 14 hrs by serial dilution method; type: functional, Salmonella enterica subsp. enterica serovar Typhi; details: Salmonella enterica, MTCC 733, 14 h
[13] = system: Escherichia coli; assay: Antibacterial activity against Escherichia coli MTCC 443 assessed as zone of inhibition at 100 ug/ml after 14 hrs by cup plate method; type: functional; details: MTCC 443, 14 h, read-out: IZ
[14] = system: Bacillus subtilis; assay: Antibacterial activity against Bacillus subtilis MTCC 441 assessed as zone of inhibition at 100 ug/ml after 14 hrs by cup plate method; type: functional; details: MTCC 441, 14 h, read-out: IZ
[15] = system: Aspergillus flavus; assay: Antifungal activity against Aspergillus flavus MTCC 277 assessed as zone of inhibition at 100 ug/ml after 30 hrs by cup plate method; type: functional; details: MTCC 277, 30 h, read-out: IZ
[16] = system: Staphylococcus aureus; assay: Antibacterial activity against Staphylococcus aureus MTCC 096 assessed as zone of inhibition at 100 ug/ml after 14 hrs by cup plate method; type: functional; details: MTCC 096, 14 h, read-out: IZ
[17] = system: Aspergillus niger; assay: Antifungal activity against Aspergillus niger MTCC 282 assessed as zone of inhibition at 100 ug/ml after 30 hrs by cup plate method; type: functional; details: MTCC 282, 30 h, read-out: IZ
[18] = system: Escherichia coli; assay: Antibacterial activity against Escherichia coli MTCC 443 after 14 hrs by serial dilution method; type: functional; details: MTCC 443, 14 h

SMILES | MIC [1] [mg/L] | MIC [2] [mg/L] | MIC [3] [mg/L] | zone of inhibition at 100 µg/mL [4] [mm] | MIC [5] [mg/L] | MIC [6] [mg/L] | zone of inhibition at 100 µg/mL [7] [mm] | zone of inhibition at 100 µg/mL [8] [mm] | MIC [9] [mg/L] | zone of inhibition at 100 µg/mL [10] [mm] | MIC [11] [mg/L] | MIC [12] [mg/L] | zone of inhibition at 100 µg/mL [13] [mm] | zone of inhibition at 100 µg/mL [14] [mm] | zone of inhibition at 100 µg/mL [15] [mm] | zone of inhibition at 100 µg/mL [16] [mm] | zone of inhibition at 100 µg/mL [17] [mm] | MIC [18] [mg/L]
CN1CCN(CCCCn2c(C(F)(F)F)cc(=O)c3cc(F)ccc32)CC1 | 25 (≈ 64.9 µM) | 6.25 (≈ 16.2 µM) | 12.5 (≈ 32.4 µM) | < 10 | 12.5 (≈ 32.4 µM) | 6.25 (≈ 16.2 µM) | 12 | 12 | 25 (≈ 64.9 µM) | < 10 | 6.25 (≈ 16.2 µM) | 50 (≈ 130 µM) | < 10 | 15 | < 10 | 15 | 14 | 50 (≈ 130 µM)
O=c1cc(C(F)(F)F)n(C/C=C/CN2CCCC2)c2ccc(F)cc12 | 12.5 (≈ 35.3 µM) | 12.5 (≈ 35.3 µM) | 6.25 (≈ 17.6 µM) | < 10 | 12.5 (≈ 35.3 µM) | 12.5 (≈ 35.3 µM) | 12 | 15 | 12.5 (≈ 35.3 µM) | 12 | 6.25 (≈ 17.6 µM) | 25 (≈ 70.6 µM) | < 10 | 12 | 12 | 15 | 12 | 50 (≈ 141 µM)
O=c1cc(C(F)(F)F)n(C/C=C/CN2CCOCC2)c2ccc(F)cc12 | 25 (≈ 67.5 µM) | 6.25 (≈ 16.9 µM) | 6.25 (≈ 16.9 µM) | < 10 | 25 (≈ 67.5 µM) | 6.25 (≈ 16.9 µM) | < 10 | 15 | 25 (≈ 67.5 µM) | < 10 | 12.5 (≈ 33.8 µM) | 50 (≈ 135 µM) | < 10 | 14 | < 10 | 12 | 17 | 25 (≈ 67.5 µM)
